Among the data in US20230149408A1, “INHIBITORS OF HUMAN IMMUNODEFICIENCY VIRUS REPLICATION” (VIIV HEALTHCARE UK (No. 5) LIMITED, priority 2020, published 2023) are CC50 and EC50 values, retold here.

What all share (format): cell-based
The test system of one series is uninfected MT2 cells. The series is described as follows: Compound cytotoxicity, XTT-based colorimetric assay. Particulars: day 4, XTT. As for the experimental part:
(§1) Compound cytotoxicity and the corresponding CC50 values were determined using the same protocol as described in the antiviral assay except that uninfected cells were used. Cytotoxicity was assessed on day 4 in uninfected MT2 cells by using a XTT (2,3-bis[2-Methoxy-4-nitro-5-sulfophenyl]-2H-tetrazolium-5-carboxyanilide inner salt)-based colorimetric assay (Sigma-Aldrich, St Louis, Mo).

The subject of the next series is recombinant NL4-3 virus. The series is described as follows: HIV cell culture assay: antiviral activity toward recombinant NL4-3 Renilla luciferase virus in MT-2 cells. As to the method:
HIV cell culture assay - MT-2 cells, 293T cells and the proviral DNA clone of NL4-3 virus were obtained from the NIH AIDS Research and Reference Reagent Program. MT-2 cells were propagated in RPMI 1640 media supplemented with 10% heat inactivated fetal bovine serum (FBS), […]. The 293T cells were propagated in DMEM media supplemented with 10% heat inactivated FBS, […]. A recombinant NL4-3 proviral clone, in which a section of the nef gene was replaced with the Renilla luciferase gene, was used to make the reference virus used in these studies. The recombinant virus was prepared through transfection of the recombinant NL4-3 proviral clone into 293T cells using Transit-293 Transfection Reagent from Mirus Bio LLC (Madison, WI). Supernatent was harvested after 2-3 days and the amount of virus present was titered in MT-2 cells using luciferase enzyme activity as a marker by measuring luciferase enzyme activity. Luciferase was quantitated using the EnduRen Live Cell Substrate from Promega (Madison, WI). Antiviral activities of compounds toward the recombinant virus were quantified by measuring luciferase activity in MT-2 cells infected for 4-5 days with the recombinant virus in the presence of serial dilutions of the compound.
The 50% effective concentration (EC50) was calculated by using the exponential form of the median effect equation where (Fa) = 1/[1+ (ED50/drug conc.)m] (Johnson VA, Byington RT. Infectivity Assay. In Techniques in HIV Research. ed. Aldovini A, Walker BD. 71-76. New York: Stockton Press.1990). The 50% inhibitory concentration (EC50) was calculated by using the exponential form of the median effect equation where percent inhibition = 1/[1 + (EC50/drug concentration)m], where m is a parameter that reflects the slope of the concentration-response curve.

A short description of series [1]: Compound cytotoxicity, XTT-based colorimetric assay. Particulars: human; uninfected MT2 cells, day 4, XTT. As to the method:
as §1
For orientation: Formazan colour is commonly taken as a measure of viable cells.

Where [2] appears, read: Human immunodeficiency virus 1, NL43, MT2.

Like-named read-outs stand apart in the source and are kept apart here. Where only a bound is given, the exact number is not on record here.

For orientation: CC50 means the concentration giving 50% cytotoxicity. Usually EC50 stands for the midpoint of the concentration-response curve. Regarding `Cn1nc(NS(C)(=O)=O)c2c(Cl)ccc(-n3c([C@H](Cc4cc(F)cc(F)c4)NC(=O)Cn4nc(C(F)F)c5c4C(F)(F)[C@@H]4C[C@H]54)nc4cc(-c5cccc(C(F)(F)F)n5)ccc4c3=O)c21` [Example 1, N-((S)-1-((3P)-3-(4-chloro-1-methyl-3-(methylsulfonamido)-1H-indazol-7-yl)-4-oxo-7-(6-(trifluoromethyl)pyridin-2-yl)-3,4-dihydroquinazolin-2-yl)-2-(3,5-difluorophenyl)ethyl)-2-((3bS,4aR)-3-(difluoromethyl)-5,5-difluoro-3b,4,4a,5-tetrahydro-1H-cyclopropa[3,4]cyclopenta[1,2-c]pyrazol-1-yl)acetamide], the CC50 with uninfected MT2 cells is greater than 20000 nM. Moreover, the concentration giving a half-maximal response (EC50) with recombinant NL4-3 virus (MT-2 cells infected 4-5 days, luciferase activity, read-out: EC50) is 0.093 nM.

In the case of `Cn1nc(NS(C)(=O)=O)c2c(Cl)ccc(-n3c([C@H](Cc4cc(F)cc(F)c4)NC(=O)Cn4nc(C(F)F)c5c4C(F)(F)[C@@H]4C[C@H]54)nc4nc(OCCC(F)(F)F)ccc4c3=O)c21` (atropisomer, axis not shown; (P)) [Example 4, N-(1-((6P)-3-(4-chloro-1-methyl-3-(methylsulfonamido)-1H-indazol-7-yl)-4-oxo-7-(3,3,3-trifluoropropoxy)-3,4-dihydropyrido[2,3-d]pyrimidin-2-yl)-2-(3,5-difluorophenyl)ethyl)-2-((3bS,4aR)-3-(difluoromethyl)-5,5-difluoro-3b,4,4a,5-tetrahydro-1H-cyclopropa[3,4]cyclopenta[1,2-c]pyrazol-1-yl)acetamide], in series [1], the CC50 at 4 day was greater than 500 nM. In the series with recombinant NL4-3 virus (setting [2]), the EC50 was 0.025 nM.

The compound `Cn1nc(NS(C)(=O)=O)c2c(Cl)ccc(-n3c([C@H](Cc4cc(F)cc(F)c4)NC(=O)Cn4nc(C(F)F)c5c4C(F)(F)[C@@H]4C[C@H]54)nc4cc(-c5nccc(C(F)F)n5)ccc4c3=O)c21` (single isomer, unassigned) [Example 2] had a CC50 at 4 day in series [1] greater than 20000 nM. The EC50 with recombinant NL4-3 virus (setting [2]) turned out to be 0.043 nM.

The compound `Cn1nc(NS(C)(=O)=O)c2cccc(-n3c([C@H](Cc4cc(F)cc(F)c4)NC(=O)Cn4nc(C(F)F)c5c4C(F)(F)[C@@H]4C[C@H]54)nc4nc(OCCC(C)(F)F)ccc4c3=O)c21` (single isomer, unassigned) [Example 3] showed a CC50 at 4 day in series [1] greater than 20000 nM. Besides, the EC50 in the series with recombinant NL4-3 virus (setting [2]) was determined as 0.019 nM.
